Data from patent US7214507B2, “Plant enzymes for bioconversion” (Plant Research International B.V., priority 2001, dated 2007).
Where “and” joins values, the source holds several entries; their conditions need not be identical. Identical values can stand only once.

Experiments:
[1] = tested on: microsomal pellet from chicory roots; test: Conversion of (+)-valencene by a microsomal pellet of chicory in the presence of NADPH; details: 100% = hydroxylation rate of β-selinene, 60 min
Protocol: The enzyme suspension was divided in 1 mL aliquots and incubated with 50 μM (+)-valencene in the presence of a 1 mM NADPH-regenerating system that consisted of 1 mM NADPH, 5 mM glucose-6-phosphate, and 1.2 IU glucose-6-phosphate cehydrogenase. The initial concentration of substrate in each assay was 45 μM and all experiments were done in duplicate. To the blank assays no NADPH regenerating system was added, so that cytochrome P450 enzymes (including the (+)-germacrene A hydroxylase) were not active. After 60 minutes the incubations were stopped by storing them at −20° C. in a freezer.

[2] = tested on: (+)-germacrene A hydroxylase; test: Effect of the used solvent for (+)-γ-gurjunene on enzyme activity; format: biochemical, Cichorium intybus L.; details: peak height of γ-gurjunene alcohol relative to the internal standard (5 nmol cis-nerolidol); 5 μL of 10 mM γ-gurjunene in the solvent
Protocol: Before experiments as described in this example were started, it was tested which organic solvent could be best used to dissolve the substrate. […] Karp et al., 1990).

[3] = tested on: NAD(P)+-dependent dehydrogenase(s); test: Oxidation of alcohols by 150,000 g supernatant of chicory roots with NAD(P)+; format: biochemical, Cichorium intybus L.
Protocol: It was assumed that this β-nootkatol is an intermediate in the formation of nootkatone. For this reason incubations of 100 μM β-nootkatol were performed at pH 10 with NAD(P)^+and a 150,000 g supernatant of chicory roots, such as described for the conversion of (−)-elema-1,3,11(13)-12-ol and germacra-1(10),4,11(13)-trien-12-ol by NADP^+-dependent dehydrogenases by De Kraker et al. (2001). During incubation the added β-nootkatol was converted for more than 60% into nootkatone in the presence of either 1 mM NADP^+ or 1 mM NAD^+. In the absence of these cofactors conversion still amounted to 25%, whereas the boiled enzyme extract gave no conversion of β-nootkatol. At pH 7.5, enzyme activity was slightlylower, whereas a 150,000 g pellet, as expected, yielded 3-fold less dehydrogenase activity than the corresponding supernatant.
To get some more information about the substrate specificity of the dehydrogenase(s) present in chicory roots, incubations with the 150,000 g supernatant were also performed with 100 μM trans,trans-farnesol as substrate (FIG. 19) in the presence of either NAD^+ or NADP^+. Trans,trans-farnesol was converted up to 60% into a mixture of trans,trans-farnesal and cis,trans-farnesal, and small amounts of farnesoic acid were observed as well.

[4] = tested on: (+)-germacrene A hydroxylase; test: Competitive inhibition of hydroxylation by 50 μM (+)-germacrene A or 50 μM α-cubebene; details: amorpha-4,11-diene alcohol (KI 1720), germacrene B alcohol (KI 1700)
[5] = tested on: (+)-germacrene A hydroxylase; test: Conversion of sesquiterpenes by a microsomal pellet of chicory in the presence of NADPH; details: for Conversion by the (+)-germacrene A hydroxylase containing microsomal pellet (in words): NADPH, microsomal pellet from chicory roots
Protocol: During the whole procedure the plant material was kept on ice as much as possible. After 5 times several seconds of mixing, the slurry was transferred to the cheesecloth with an additional 10 ml of extraction buffer. The cheesecloth was squeezed out and the filtrate was centrifuged (Sigma 2K15) for 20 minutes at 20,000 g and 4° C. The supernatant was poured over a funnel filled with glass wool. […] The resulting microsomal pellets (about 6) were stored under argon at −80° C.
Before incubation, 10 pellets were pottered in 30 mL of assay buffer consisting of 25 mM Tris pH 7.5), 2 mM DTT, 1 mM ascorbic acid, 5 μM FAD, 5 μM FMN and 10% (v/v) glycerol. The enzyme suspension was divided in 1 mL aliquots and incubated with 5 μL substrate solution in the presence of a 1 mM NADPH-regenerating system that consisted of 1 mM NADPH, 5 mM glucose-6-phosphate, and 1.2 IU glucose-6-phosphate dehydrogenase (all from Sigma). The initial concentration of substrate in each assay was 45 μM and all were done in duplicate. […] After 60 minutes the incubations were stopped by storing them at −20° C. in a freezer.
The enzyme assays were extracted 2 times with 1 mL 20% (v/v) ether in pentane, after the addition of 5 μM cis-nerolidol (Fluka). The organic phase was filtered through a glasswool-plugged (dimethyl chlorosilane-treated, Chrompack) Pasteur pipette that contained 0.4 gram of silica and a little anhydrous MgSO4. The pipette was rinsed with 1.5 mL ether and the extract was concentrated to approximately 50 μL under a stream of nitrogen.

Compound: C=C(C)[C@@H]1CCC2=CCC[C@@H](C)[C@]2(C)C1 [(+)-valencene]
- Relative conversion to nootkatone [1]: 24.4% and 24.4 ± 1.1%
- Relative conversion to valencen-12-ol [1]: 2.61% and 2.6 ± 0.1%

Compound: C[S+](C)[O-] [DMSO]
- Enzyme activity ± SD [2]: 1.80 ± 0.09

Compound: CC(C)=CCC/C(C)=C/CC/C(C)=C/CO [Trans,trans-farnesol, trans,trans-farnesol]
- Conversion into a mixture of trans,trans-farnesal and cis,trans-farnesal ([3]; 100 μM substrate, NAD+ or NADP+, 150,000 g supernatant): up to 60%
- Conversion of farnesol into farnesal, share of maximum enzyme activity ([3]; pH 7.0, maximum at pH 10): 30%

Compound: CCO [ethanol]
- Enzyme activity ± SD [2]: 1.87 ± 0.01

Compound: CC(C)=C1C/C=C(\C)CC/C=C(\C)CC1 [germacrene B]
- Inhibition (%) ± SD, Germacrene A, second product ([4]; 50 μM (+)-germacrene A added): 100.0%
- Inhibition (%) ± SD, α-Cubebene, second product ([4]; 50 μM α-cubebene added): 27.3 ± 10%

Compound: CCCCCC [hexane]
- Enzyme activity ± SD [2]: <0.1

Compound: CC(C)O [iso-propanol]
- Enzyme activity ± SD [2]: 1.76 ± 0.16

Compound: C=C(C)[C@@H]1CC[C@@]2(C)CCC[C@](C)(O)[C@@H]2C1 [neointermedeol]
- Less efficiently hydroxylated than β-selinene [5]: 15 fold

Compound: CCCCC [pentane]
- Enzyme activity ± SD [2]: 0.47 ± 0.07

Compound: C=C(C)[C@@H]1CCC2=C[C@@H](O)C[C@@H](C)[C@]2(C)C1 [β-nootkatol]
- Conversion into nootkatone ([3]; 100 μM substrate, pH 10, 1 mM NADP+ or 1 mM NAD+, 150,000 g supernatant): more than 60%
- Conversion into nootkatone in the absence of cofactors ([3]; 100 μM substrate, pH 10, no NAD(P)+): 25%

Compound: (−)-(α)-gurjunene
- Conversion by the (+)-germacrene A hydroxylase containing microsomal pellet (in words) [5]: not converted

Compound: (−)-limonene
- Conversion by the (+)-germacrene A hydroxylase containing microsomal pellet (in words) [5]: Some conversion
